This note sets out measurements from US20220378923A1, “BET DEGRADER” (KYOWA KIRIN CO., LTD., priority 2019, published 2022).

SMILES strings stand for the structures.

The subject of the first assay is MYC mRNA expression in SU-DHL-4 cells. Description: Suppressive effect on MYC mRNA expression (Test Example 2). The class given is cell-based, human. The conditions noted are these: Homo sapiens, test compound 100 nmol/L, 6 hours, qRT-PCR corrected by ACTB, GAPDH, HPRT1, read-out: Suppression Rate of MYC mRNA Expression (%). As for the experimental part:
The cells were passaged twice a week at a volume of 20-40 mL so as to maintain a cell concentration of 1×10^6 cells/mL or less. The cultured SU-DHL-4 cells were seeded at 6×10^5 cells/well in a transparent 6-well plate (Code No. 140675, Thermo Fisher Scientific). After seeding, the cells were precultured at 37° C. in a carbon dioxide gas incubator for 18 to 25 hours. […] At this time, the final concentration of DMSO was adjusted to be 0.1 vol %. After adding the test compound, the cells were cultured at 37° C. in a carbon dioxide gas incubator for 6 hours. Then, the cells were collected by centrifugation and used for extraction of mRNA. mRNA extraction from cells was performed using Maxwell® 16 LEV simplyRNA Purification Kits (Code No. AS1270, Promega). The mRNA recovery protocol was performed according to the manufacturer's recommended protocol attached to the kit. […] The cDNA conversion was performed, according to the manufacturer's recommended protocol attached to the kit, in 0.020 mL of the reaction solution, and GeneAmp® PCR System 9700 (Applied Biosystems) was used. The cDNA-converted sample was diluted 10-fold by adding 0.180 mL of RNase Free Water (Code No. 10977-023, Thermo Fisher Scientific) and used for quantitative real-time polymerase chain reaction (qRT-PCR). For the calibration curve of qRT-PCR, 0.08 mL of RNase Free Water was added to a cDNA sample using DMSO as a test compound for 5-fold dilution. Further, two 5-fold dilutions were prepared stepwise, and these three samples were used as the calibration curve samples. The following reagents were used for qRT-PCR: TaqMan Gene Expression Assays, Inventoried (Primer probe: Code No. 4331182, Thermo Fisher Scientific, Assay ID: (i) MYC: Hs00153408_m1, (ii) ACTB: Hs01060665_g1, (iii) GAPDH: Hs04420697_g1, (iv) HPRT1: […] Universal PCR Master Mix, no AmpEraseR UNG (Master Mix: Code No. 4367846, Thermo Fisher Scientific). Primer probe (0.001 mL), Master Mix (0.010 mL), water (0.004 mL) and the diluted cDNA sample (0.005 mL) were mixed, and qRT-PCR analysis was performed. For qRT-PCR analysis, QuantStudio 7 Flex (Thermo Fisher Scientific) or 7500 Fast Real-Time PCR (Applied Biosystems) was used to measure in Fast mode and analyze. […] Corrected MYC expression=A/B • A: MYC expression level • B: Geometric mean of expression levels of ACTB, GAPDH and HPRT1 Using the corrected values, the suppression rate of MYC expression for the wells to which the test compound was not added was calculated by the following formula. […] Corrected MYC expression level in a well containing test compound • D: Corrected MYC expression level in a well to which test compound was not added
As to `CCC(=O)N1c2ccccc2[C@H](Nc2ccc(NC(=O)CCNC(=O)c3ccc(N[C@@H]4C[C@H](C)N(C(=O)CC)c5ccccc54)cc3)cc2)C[C@@H]1C` (relative stereo) [Compound 2f, 4-{[(2S,4R)-2-Methyl-1-propionyl-1,2,3,4-tetrahydroquinolin-4-yl]amino}-N-{3-[(4-{[(2S*,4R*)-2-methyl-1-propionyl-1,2,3,4-tetrahydroquinolin-4-yl]amino}phenyl)amino]-3-oxopropyl}benzamide], the inhibition at 0.1 µM was 98.6%.
As for `Cc1sc2c(c1C)C(c1ccc(C(=O)N3CCC(NC(=O)c4ccc(C5=N[C@@H](CC(=O)OC(C)(C)C)c6nnc(C)n6-c6sc(C)c(C)c65)cc4)CC3)cc1)=NCc1nnc(C)n1-2` [Compound 14p, tert-Butyl (S)-2-(2,3,9-trimethyl-4-(4-((1-(4-(2,3,9-trimethyl-6H-thieno[3,2-f][1,2,4]triazolo[4,3-a][1,4]diazepin-4-yl)benzoyl)piperidin-4-yl)carbamoyl)phenyl)-6H-thieno[3,2-f][1,2,4]triazolo[4,3-a][1,4]diazepin-6-yl)acetate], the inhibition at 0.1 µM amounted to 97.6%.
For the molecule `CCC(=O)N1c2ccccc2[C@H](NCC23CCC(C(=O)N4CC(C(=O)Nc5ccc(N[C@@H]6C[C@H](C)N(C(=O)CC)c7ccccc76)cc5)C4)(CC2)CC3)C[C@@H]1C` (relative stereo) [Compound 17o, 1-(4-((((2S,4R)-2-Methyl-1-propionyl-1,2,3,4-tetrahydroquinolin-4-yl)amino)methyl)bicyclo[2.2.2]octane-1-carbonyl)-N-(4-(((2S*,4R*)-2-methyl-1-propionyl-1,2,3,4-tetrahydroquinolin-4-yl)amino)phenyl)azetidine-3-carboxamide], the inhibition at 0.1 µM was 97.1%.
On the same count and under the same terms, to `CCC(=O)N1c2ccccc2[C@H](Nc2ccc(NC(=O)CCCC(=O)Nc3ccc(C(=O)N4CCC(=O)Nc5ccccc54)cc3)cc2)C[C@@H]1C` [Compound 16o, N^1-(4-(((2S,4R)-2-Methyl-1-propionyl-1,2,3,4-tetrahydroquinolin-4-yl)amino)phenyl)-N5-(4-(4-oxo-2,3,4,5-tetra hydro-1H-benzo[b][1,4]diazepine-1-carbonyl)phenyl)glutaramide] belongs 79.1%; to `Cc1sc2c(c1C)C(c1ccc(NC(=O)C#CCNC(=O)c3ccc(C4=NCc5nnc(C)n5-c5sc(C)c(C)c54)cc3)cc1)=NCc1nnc(C)n1-2` [Compound 14e, N-(4-Oxo-4-((4-(2,3,9-trimethyl-6H-thieno[3,2-f][1,2,4]triazolo[4,3-a][1,4]diazepin-4-yl)phenyl)amino)but-2-yn-1-yl)-4-(2,3,9-trimethyl-6H-thieno[3,2-f][1,2,4]triazolo[4,3-a][1,4]diazepin-4-yl)benzamide], 96.7%; to `CCC(=O)N1c2ccccc2[C@H](Nc2ccc(NC(=O)CNCC(=O)Nc3ccc(N[C@@H]4C[C@H](C)N(C(=O)CC)c5ccccc54)cc3)cc2)C[C@@H]1C` [Compound 5d, 2,2′-Azanediylbis(N-(4-(((2S,4R)-2-methyl-1-propionyl-1,2,3,4-tetrahydroquinolin-4-yl)amino)phenyl)acetamide)], 97.5%.
Same read-out and setting: to `CCC(=O)N1c2ccccc2[C@H](Nc2ccc(-c3nnc(CNC(=O)C4CCN(Cc5cc(O)cc(-c6c(C)noc6C)c5)CC4)o3)cc2)C[C@@H]1C` [Compound 12a, 1-(3-(3,5-Dimethylisoxazol-4-yl)-5-hydroxybenzyl)-N-((5-(4-(((2S,4R)-2-methyl-1-propionyl-1,2,3,4-tetrahydroquinolin-4-yl)amino)phenyl)-1,3,4-oxadiazol-2-yl)methyl)piperidine-4-carboxamide] belongs 98.5%; to `CCC(=O)N1c2ccccc2[C@H](Nc2ccc(NC(=O)C3CN(C(=O)C4CCN(Cc5cc(O)cc(-c6c(C)noc6C)c5)CC4)C3)cc2)C[C@@H]1C` [Compound 12b, 1-(1-(3-(3,5-Dimethylisoxazol-4-yl)-5-hydroxybenzyl)piperidine-4-carbonyl)-N-(4-(((2S,4R)-2-methyl-1-propionyl-1,2,3,4-tetrahydroquinolin-4-yl)amino)phenyl)azetidine-3-carboxamide], 97.8%; to `CCC(=O)N1c2ccccc2[C@H](Nc2ccc(C(=O)NCCCNC(=O)c3ccc(N[C@@H]4C[C@H](C)N(C(=O)CC)c5ccccc54)cc3)cc2)C[C@@H]1C` (relative stereo) [Compound 1a, N,N′-(Propane-1,3-diyl)bis(4-{[(2S*,4R*)-2-methyl-1-propionyl-1,2,3,4-tetrahydroquinolin-4-yl]amino}benzamide)], 96.7%.
`CCC(=O)N1c2ccccc2[C@H](Nc2ccc(SCCNC(=O)c3ccc(C4=N[C@@H](CC(=O)OCCN(C)C)c5nnc(C)n5-c5sc(C)c(C)c54)cc3)cc2)C[C@@H]1C` [Compound 13a, 2-(Dimethylamino)ethyl 2-((S)-2,3,9-trimethyl-4-(4-((2-((4-(((2S,4R)-2-methyl-1-propionyl-1,2,3,4-tetrahydroquinolin-4-yl)amino)phenyl)thio)ethyl)carbamoyl)phenyl)-6H-thieno[3,2-f][1,2,4]triazolo[4,3-a][1,4]diazepin-6-yl)acetate]: the inhibition at 0.1 µM was 97.6%.
For the molecule `CCC(=O)N1c2ccccc2[C@H](Nc2ccc(NC(=O)COCC(=O)Nc3ccc(C4=NCc5nnc(C)n5-c5sc(C)c(C)c54)cc3)cc2)C[C@@H]1C` [Compound 14d, N-(4-(((2S,4R)-2-Methyl-1-propionyl-1,2,3,4-tetrahydroquinolin-4-yl)amino)phenyl)-2-(2-oxo-2-((4-(2,3,9-trimethyl-6H-thieno[3,2-f][1,2,4]triazolo[4,3-a][1,4]diazepin-4-yl)phenyl)amino)ethoxy)acetamide], the inhibition at 0.1 µM is 97.4%.

Staying with this assay, now noted: test compound 100 nmol/L, 6 hours, qRT-PCR corrected by ACTB, GAPDH, HPRT1.
Consider `CCC(=O)N1c2ccccc2[C@H](N[C@H]2CC[C@H](NC(=O)C#CCNC(=O)[C@H]3CC[C@H](N[C@@H]4C[C@H](C)N(C(=O)CC)c5ccccc54)CC3)CC2)C[C@@H]1C` (relative stereo) [Compound 9d, (1R,4R)-4-(((2S*,4R*)-2-Methyl-1-propionyl-1,2,3,4-tetrahydroquinolin-4-yl)amino)-N-(4-(((1R,4R)-4-(((2S,4R)-2-methyl-1-propionyl-1,2,3,4-tetrahydroquinolin-4-yl)amino)cyclohexyl)amino)-4-oxobut-2-yn-1-yl)cyclohexane-1-carboxamide], for which the “Suppression Rate of MYC mRNA Expression (%)” value (from here on “Suppression Rate … (%)”) worked out at 98.0%.
For the molecule `CCC(=O)N1c2ccccc2[C@H](Nc2ccc(C(=O)N3CC(C(=O)N[C@H]4CC[C@H](N[C@@H]5C[C@H](C)N(C(=O)CC)c6ccccc65)CC4)C3)cc2)C[C@@H]1C` [Compound 8r, 1-(4-(((2S,4R)-2-Methyl-1-propionyl-1,2,3,4-tetrahydroquinolin-4-yl)amino)benzoyl)-N-((1R,4R)-4-(((2S,4R)-2-methyl-1-propionyl-1,2,3,4-tetrahydroquinolin-4-yl)amino)cyclohexyl)azetidine-3-carboxamide], the “Suppression Rate … (%)” value is reported as 96.7%.
For `CCC(=O)N1c2ccccc2[C@H](NCCCCC(=O)NCc2cn(-c3ccc(N[C@@H]4C[C@H](C)N(C(=O)CC)c5ccccc54)cc3)nn2)C[C@@H]1C` (relative stereo) [Compound 12f, 5-(((2S*,4R*)-2-Methyl-1-propionyl-1,2,3,4-tetrahydroquinolin-4-yl)amino)-N-((1-(4-(((2S,4R)-2-methyl-1-propionyl-1,2,3,4-tetrahydroquinolin-4-yl)amino)phenyl)-1H-1,2,3-triazol-4-yl)methyl)pentane amide], the “Suppression Rate … (%)” value is 97.9%.
Regarding `CCC(=O)N1c2ccccc2[C@H](Nc2ccc(C(=O)NCCNS(=O)(=O)c3ccc(N[C@@H]4C[C@H](C)N(C(=O)CC)c5ccccc54)cc3)cc2)C[C@@H]1C` [Compound 4d, 4-{[(2S,4R)-2-Methyl-1-propionyl-1,2,3,4-tetrahydroquinolin-4-yl]amino}-N-{2-[(4-{[(2S,4R)-2-methyl-1-propionyl-1,2,3,4-tetrahydroquinolin-4-yl]amino}phenyl)sulfonamide]ethyl}benzamide], the “Suppression Rate … (%)” value is 98.3%.
